Like-named read-outs stand apart in the source and are kept apart here.
Experiments:
ALS patients [1] = conditions: for decline in vital capacity: at least 6 months of treatment
Experimental: (§1) A randomized, double-blind, placebo-controlled study was administered over six cycles. Patients were treated with chlorite 2 mg/kg/infusion, or placebo. […] Samples from both responders and non-responders were collected and tested at different time points, e.g., at baseline (pre-dose Cycle 1, Week 1), 1-month, 2-month, 3-month, 4-month, 5-month and 6-month. ALSFRS-R scores and biomarkers levels were measured in responders and non-responders at selected time points and compared to the placebo group.

ALS patients [2] = conditions: 1-2 mg/kg/infusion, at least 6 months
ALS patients [3] = conditions: for mean decrease in ALSFRS-R score: 3-month off-drug follow-up; for estimated ALSFRS-R slope: patients less than the baseline median wr-CRP; for estimated ALSFRS-R slope decline: patients with baseline wrCRP at or above the median
LPS = conditions: for responders with decreased LPS: at least 6 months of treatment
Experimental: as §1

[4] = system: G93A SOD1 congenic strain of mice; conditions: preliminary studies (McGrath et al., 2010); cited from earlier work
[5] = system: CD16 expression on CD16 bright monocytes; conditions: 0.2-3.2 mg/kg single dose, 24 hours after dosing
PD patients = conditions: 1-2 mg/kg/infusion, 6 months
IL-18 [6] = system: IL-18
Experimental: A randomized, double-blind, placebo-controlled study was administered over six cycles. Patients were treated with chlorite 2 mg/kg/infusion, or placebo. Patients were scheduled to receive a total of 20 infusions over 6 cycles during a 25-week (or 6-month) treatment period. […] Levels of biomarkers can be measured with techniques known in the art, e.g., ELISA or flow cytometry.

ALS patients [7] = conditions: for ALSFRS-R level over the course of treatment: 1-2 mg/kg/infusion, 6 months
Experimental: Patients diagnosed with ALS are treated with chlorite over the course of 6 months. Based upon the initial concentration of IL-18 at the baseline or its baseline level, patients are sorted into two groups. Patients with baseline level of IL-18 higher than 60 pg/mL are assigned in IL-18-high group and patients with baseline level of IL-18 lower than 60 pg/mL are assigned in IL-18-low group. Both groups are treated with 1-2 mg/kg/infusion chlorite over the course of 6 months. ALSFRS-R scores and IL-18 levels are recorded at different time points during the treatment and compared between IL-18-high and IL-18-low groups.

AD patients = conditions: 1-2 mg/kg/infusion, 6 months
IL-18 [8] = conditions: 1-2 mg/kg/infusion, 6 months; for plasma level of IL-18 after treatment: responders
Experimental: Thirty two patients diagnosed with ALS were treated with chlorite over the course of 6 months. The initial plasma concentration of IL-18 in each patient was recorded and set as the baseline level. Patients were treated with 1-2 mg/kg/infusion chlorite over the course of 6 months. ALSFRS-R scores and IL-18 levels were recorded at different time points during the treatment and compared with the initial concentration.

Substance: sodium chlorite [NP001]
- disease progression of ALS patients (ALS patients [1]; 2 mg/kg, patients with high plasma level of IL-18, IL-6, INF-g, and CPR): capable of slowing the disease progression
- percentage of patients who did not progress (responders) (ALS patients [1]; high dose group (2 mg/kg), 6-month treatment period): 27%
- percentage of non-progressing patients relative to placebo group (ALS patients [1]; high dose group vs placebo (11%)): approximately 2.5 times
- decline in vital capacity (ALS patients [1]; non-responders, 1 mg): −17.7+/−17.9
- decline in vital capacity (ALS patients [1]; non-responders, 2 mg): −14.5+/−13.2
- ALSFRS-R score over the 6-month treatment period (ALS patients [1]; responders): remained stable
- decline in vital capacity (ALS patients [1]; responders, 1 mg): −8.95+/−10.1
- decline in vital capacity (ALS patients [1]; responders, 2 mg): −3.76+/−5.7
- relationship between mean ALSFRS-R levels and mean baseline levels of biomarkers (ALS patients [2]): linear relationship with a positive slope
- effect on ALSFRS-R slope and change from baseline compared to placebo (ALS patients [3]; 1 mg/kg): minimal or no effect dose
- mean decrease in ALSFRS-R score (ALS patients [3]; 1 mg/kg): −3.7
- estimated ALSFRS-R slope (ALS patients [3]; 1 mg/kg): −1.38
- estimated ALSFRS-R slope decline (ALS patients [3]; 1 mg/kg): −0.73 points per month
- mean decrease in ALSFRS-R score (ALS patients [3]; 2 mg/kg): −3.3
- ALSFRS-R mean slope (ALS patients [3]; 2 mg/kg, 6 months of treatment (Weeks 1 through 25)): −0.77 points per month
- percent change in ALSFRS-R mean slope compared to placebo (ALS patients [3]; 2 mg/kg, 6 months, concurrent placebo): 13%
- improvement in rate of progression compared to placebo (ALS patients [3]; 2 mg/kg, baseline wrCRP at or above the median, p=0.2): 41%
- estimated ALSFRS-R slope (ALS patients [3]; 2 mg/kg): −0.87
- estimated ALSFRS-R slope decline (ALS patients [3]; 2 mg/kg): −0.55 points per month
- slowing of change in ALSFRS-R from baseline (ALS patients [3]; 2 mg/kg, with addition of matched historical placebo control patients): 21%
- improvement in the rate of progression compared to combined placebo controls (ALS patients [3]; 2 mg/kg, with matched historical placebo controls, p=0.16): 19%
- slowing of change in ALSFRS-R from baseline (ALS patients [3]; 2 mg/kg, without addition of matched historical placebo control patients): 17%
- slower functional decline (residual) in mean change in ALSFRS-R compared to placebo (ALS patients [3]; high dose (2 mg/kg), off-drug follow-up): 11%
- responders with decreased LPS (LPS; high dose responders): 70%
- responders with decreased LPS (LPS; low dose group responders (8)): half
- LPS level at week 24 (LPS; non-responders, baseline about 0.35): about 0.2
- decrease of LPS level from baseline (LPS; non-responders, week 24): about 40%
- LPS level after treatment (LPS; responders, week 24, baseline about 0.3): undetectable level
- decrease of LPS level from baseline (LPS; responders, week 24, calculated with minimum detection level about 0.075): about 75%
- survival, treated compared to control mice [4]: significant survival improvement
- level of CD16 expression on the CD16 bright subset of monocytes vs placebo [5]: Dose-dependent changes
- treatment of Parkinson's patients (PD patients): capable of treating Parkinson's patients
- responders with decreased IL-18 (IL-18 [6]; high dose responders, at least 6 months of treatment): 80%
- responders with decrease in IL-18 (IL-18 [6]; low dose group responders (8), at least 6 months of treatment): 1 patient
- change of plasma IL-18 level from baseline (IL-18 [6]; non-responders, after 25 weeks): increase
- change of plasma IL-18 level from baseline (IL-18 [6]; responders, after 25 weeks of treatment): decrease
- ALSFRS-R level over the course of treatment (ALS patients [7]; IL-18-high group (baseline IL-18 higher than 60 pg/mL)): stabilizes
- decrease in IL-18 baseline level (ALS patients [7]; IL-18-high vs IL-18-low group): can only be observed in IL-18-high group
- ALSFRS-R level over the course of treatment (ALS patients [7]; IL-18-low group (baseline IL-18 lower than 60 pg/mL)): no stabilization
- treatment of AD patients (AD patients): capable of treating AD patients
- number of non-responders (IL-18 [8]; 32 ALS patients): 22
- number of responders (IL-18 [8]; 32 ALS patients): 10
- plasma level of IL-18 after treatment (IL-18 [8]): decreased
- plasma level of IL-18 after treatment (IL-18 [8]; listed as chlorite/NP001): capable of lowering IL-18 plasma level

Source: US20170106017A1 (priority 2014, published 2017)
